Data reported in PMC9775652, “Concomitant Administration of Red Ginseng Extract with Lactic Acid Bacteria Increases the Plasma Concentration of Deglycosylated Ginsenosides in Healthy Human Subjects” (Biomolecules, 2022).
Where two headings read alike, the source gives them in different places.

Key:
[1] = tested on: CaCo-2 cells; experiment: Transport (permeability) of ginsenosides in CaCo-2 cell monolayers; format: in vitro ADME; settings: Caco-2
Procedure: (§1) CaCo-2 cells (passage no 41–43) were seeded onto collagen-coated permeable support (1.0 μm pore size) in a 24-well plate at a density of 2.5 × 10^4 cells/insert and cultured for 21 days in Dulbecco’s modified eagle’s medium supplemented with 10% fetal bovine serum, 1% non-essential amino acids, and 1% penicillin-streptomycin at 37 °C in a humidified atmosphere (5% CO2/95% air). After confirming that the transepithelial electrical resistance (TEER) of the CaCo-2 cell monolayer was over 400 Ω·cm^2, Apical to basal (A to B) transport and B to A transport of ginsenosides using 50 µM, GRb1 was investigated as previously described. The same permeability study was performed using 50 µM GRb2, GRc, GRd, GRg3, GRh2, GF2, CK, PPD, GRe, GRf, GRg1, GRh1, GF1, or PPT.
(§2) For the transport study of ginsenosides in CaCo-2 cells and LLC-PK1-P-gp cells, the ginsenoside transport rate in the A to B or B to A directions was calculated from the slope of the regression line from the mean transported amounts versus time plot. The apparent permeability (Papp) was calculated using Equation (1). (1) Papp (×10^−6 cm/s)=transport rate (nmol/min)/concentration(μM)×area(cm^2)×60s
(§3) The efflux ratio was calculated by dividing the Papp of ginsenosides from the B to A direction by that from the A to B direction.

[2] = Pharmacokinetic study of ginsenosides in healthy humans after repeated oral RGE with or without LAB; format: in vivo, human
Procedure: A single-sequence study consisting of two periods was conducted on five healthy male subjects (body weight > 50 kg and age > 19 years) for 29 days. During the first period of the study (RGE treatment group), three pouches of RGE (30 mL, 104.1 mg of total ginsenosides) were administered to 5 subjects once daily for 14 days. On the 14th day, the subjects were admitted to the Clinical Trial Center of KNUH at 7 AM and underwent the last RGE administration at approximately 8–9 AM. Blood samples (approximately 3 mL) were collected at 0, 4, 6, 8, 10, 12, 13, 14, and 24 h after the last dose. A saline-locked angiocatheter was placed on the forearm of each subject’s hand. After discarding 1 mL of blood derived from the catheter, 3 mL of blood was drawn into a vacutainer tube containing heparin and centrifuged at 3000× g for 10 min. The supernatant plasma samples were stored at −80 °C until ginsenoside analysis.
In the second half of the study (RGE + LAB treatment group), 3 pouches of RGE (30 mL, 104.1 mg of total ginsenosides) and 1 pouch of LAB (1 billion CFU/2 g) were co-administered once daily for 14 days. On the […], the subjects were admitted to the Clinical Trial Center of KNUH at 7 AM and received the last red ginseng dose at approximately 8–9 AM. Blood samples (approximately 3 mL) were withdrawn at 0, 4, 6, 8, 10, 12, 13, 14, and 24 h intervals after the last dose and centrifuged at 3000× g for 10 min; the supernatant plasma samples were stored at −80 °C.
Briefly, to analyze GRb1, GRb2, GRc, GRd, GRe, GRf, GRg1, GRg3, GF1, and GF2, 400 μL of an internal standard (IS; 0.05 ng/mL berberine in methanol) was added to 100 μL of plasma. The mixture was vortexed for 15 min and centrifuged at 16,000× g for 5 min. After centrifugation, 400 μL of the supernatant was evaporated using a speed-dry vacuum concentrator (Christ, Osterode am Harz, Germany). The residue was reconstituted using 200 μL of 70% methanol supplemented with 0.1% formic acid, and a 10 μL aliquot was injected into the LC-MS/MS system. Chromatographic separation was performed using a Polar RP column (150 × 2.0 mm, 4.0 μm particle size; Phenomenex, Torrance, CA, USA) using a mobile phase consisting of 0.1% formic acid in water (phase A) and 0.1% formic acid in methanol (phase B). The following elution gradient was used: 69% of phase B for 0–2.0 min, 69–85% of phase B for 2.0–4.0 min, and 85–69% of phase B for 6.0–6.5 min. The flow rate was 0.27 mL/min.
The mixture was vortexed for 10 min and centrifuged at 16,000× g for 5 min. After centrifugation, the samples were frozen at −80 °C for 4 h. The upper layer was transferred to a clean tube and evaporated. The residue was reconstituted using 200 μL of 80% methanol supplemented with 0.1% formic acid, and a 10 μL aliquot was injected into the LC-MS/MS system. Chromatographic separation was performed using a Luna C18 column (150 × 2.0 mm, 3.0 μm particle size; Phenomenex, Torrance, CA, USA) and using a mobile phase consisting of water containing 0.1% formic acid: methanol containing 0.1% formic acid = 8:92 (v/v) at a flow rate of 0.15 mL/min.
The quantification of ginsenosides was carried out using multiple reaction monitoring in positive ionization mode, as previously described.
Finally, pharmacokinetic parameters were calculated using non-compartmental methods (WinNonlin version 5.1; Pharsight Co., Certara, NJ, USA). Statistical analysis was performed by Student’s t-test to compare the two groups using IBM SPSS Statistics for Windows (version 25.0; IBM Corp., Armonk, NY, USA). Differences were considered significant at p < 0.05.

[3] = tested on: LAB; experiment: In vitro RGE fermentation with LAB; format: in vitro ADME
Procedure: (§4) To identify the effects of LAB on ginsenoside metabolism, an in vitro fermentation study was performed according to the method of Jeon et al., with slight modifications. Briefly, RGE (10 mL, 1 pouch) and 2 g LAB (containing 1 billion CFU) were suspended in 10 mL autoclaved MRS broth (550 mg broth powder dissolved in 10 mL water). For the 15 ginsenosides, individual ginsenosides (10 μM each) and 2 g of LAB were suspended in 20 mL of autoclaved MRS broth (550 mg broth powder dissolved in 20 mL water). The mixture was incubated for 7 days in a shaking incubator at 37 °C and 300 rpm, and a 0.1 mL aliquot of the incubation mixture was collected on days 0, 3, 5, and 7. The incubation medium was diluted 100-fold with distilled water and stored at −80 °C to analyze ginsenosides using the LC-MS/MS system.
(§5) To measure the metabolic activity of ginsenosides, the formation rate of ginsenosides (pmol/day) was calculated by dividing the slope of the regression line by the amount of deglycosylated ginsenosides versus the incubation time plot by the initial concentration of individual ginsenosides.

[4] = Transport (permeability) of ginsenosides in CaCo-2 cell monolayers; format: in vitro ADME; settings: human
Procedure: as §1, §2, §3

[5] = cited from earlier work
[6] = tested on: LAB; experiment: Incubation of individual ginsenosides with LAB (metabolic pathway); format: in vitro ADME; settings: individual ginsenoside 10 μM with LAB (1 billion CFU), 7 days; GF2 to CK, CK to PPD, GRg1 to GRh1; result in words
Procedure: as §4, §5

[7] = biological target: T1, P-gp (Homo sapiens, UniProt P08183); experiment: Transport of ginsenosides in P-gp-overexpressing LLC-PK1-P-gp cells; format: in vitro ADME; settings: LLC-PK1
T1 construct: host or cells: LLC-PK1-P-gp cells (passage no. 25–28)
Procedure: LLC-PK1-P-gp cells (passage no. 25–28) were seeded onto collagen-coated permeable support (1.0 μm pore size) in 24-well plates at a density of 2.5 × 10^4 cells/insert and grown for 5 days with TEER values of over 500 Ω·cm^2 [24]. The A to B transport and B to A transport of GRg3, GRh2, CK, PPD, GRg1, GRh1, and PPT (20 μM each) were measured as previously described. The concentration dependency in the B to A transport of GRh2, CK, PPD, and PPT was measured in the range of 6.25–200 μM for GRh2, CK, PPD, and PPT.
as §2, §3
To measure the kinetic parameters of the concentration dependence on the P-gp-mediated ginsenoside efflux, the ginsenoside transport rate in the B to A direction (ν) versus the ginsenoside concentration (S) plot was fitted in the Michaelis–Menten Equation (2) using Sigma Plot (version 12.0, Systat Software Inc. Chicago, IL, USA). (2) ν=Vmax×S/Km+S

[8] = RGE incubated with LAB (1 billion CFU) for 7 days at 37 °C, result in words

T1 sequence (P08183 whole entry): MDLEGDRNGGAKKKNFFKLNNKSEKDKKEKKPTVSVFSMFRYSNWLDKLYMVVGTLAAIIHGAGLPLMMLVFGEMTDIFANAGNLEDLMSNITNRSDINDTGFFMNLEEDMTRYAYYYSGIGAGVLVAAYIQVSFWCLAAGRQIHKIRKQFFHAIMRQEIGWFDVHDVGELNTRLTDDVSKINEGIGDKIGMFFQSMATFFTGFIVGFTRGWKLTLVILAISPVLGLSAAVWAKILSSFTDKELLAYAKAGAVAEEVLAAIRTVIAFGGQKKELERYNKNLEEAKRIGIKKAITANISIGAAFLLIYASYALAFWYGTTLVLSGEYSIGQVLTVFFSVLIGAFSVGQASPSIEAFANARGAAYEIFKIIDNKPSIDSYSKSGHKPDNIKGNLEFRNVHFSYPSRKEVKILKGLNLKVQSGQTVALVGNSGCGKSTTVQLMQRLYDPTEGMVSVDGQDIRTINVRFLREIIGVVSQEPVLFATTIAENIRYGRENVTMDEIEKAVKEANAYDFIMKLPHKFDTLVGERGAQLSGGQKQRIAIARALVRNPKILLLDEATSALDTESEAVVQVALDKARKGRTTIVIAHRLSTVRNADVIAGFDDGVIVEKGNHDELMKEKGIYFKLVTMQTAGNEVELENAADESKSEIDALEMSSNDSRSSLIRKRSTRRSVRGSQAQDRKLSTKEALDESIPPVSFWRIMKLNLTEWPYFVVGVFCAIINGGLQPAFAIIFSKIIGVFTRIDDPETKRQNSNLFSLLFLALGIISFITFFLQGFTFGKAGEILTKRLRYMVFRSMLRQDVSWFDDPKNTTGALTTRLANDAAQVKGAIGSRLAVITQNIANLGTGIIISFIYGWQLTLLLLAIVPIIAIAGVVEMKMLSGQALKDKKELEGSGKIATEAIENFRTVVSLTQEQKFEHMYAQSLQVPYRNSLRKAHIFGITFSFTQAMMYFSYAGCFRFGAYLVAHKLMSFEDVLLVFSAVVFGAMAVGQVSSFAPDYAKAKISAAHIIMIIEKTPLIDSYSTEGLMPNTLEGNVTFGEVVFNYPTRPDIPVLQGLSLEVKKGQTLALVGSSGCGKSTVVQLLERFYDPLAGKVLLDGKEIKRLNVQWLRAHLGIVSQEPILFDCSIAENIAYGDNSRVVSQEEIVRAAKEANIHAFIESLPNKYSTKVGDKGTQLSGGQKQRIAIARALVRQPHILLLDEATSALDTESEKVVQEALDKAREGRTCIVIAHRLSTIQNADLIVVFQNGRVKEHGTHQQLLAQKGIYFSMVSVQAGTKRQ

SMILES | A to B Papp [1] | Cmax ([2]; human, in vivo, po) [ng/mL] | MRT ([2]; human, in vivo, po) [h] | Tmax ([2]; human, in vivo, po) [h] | AUC ([2]; human, in vivo, po, 104.1 mg) [ng·h/mL] | Relative abundance / metabolic activity following fermentation of RGE with LAB [3] | Relative abundance / metabolic activity following fermentation of RGE with LAB [3, 8] | also measured
CC(C)=CCC[C@](C)(O[C@@H]1O[C@H](CO[C@@H]2O[C@@H](CO)[C@H](O)[C@H]2O)[C@@H](O)[C@H](O)[C@H]1O)[C@H]1CC[C@]2(C)[C@@H]1[C@H](O)C[C@@H]1[C@@]3(C)CC[C@H](O[C@@H]4O[C@H](CO)[C@@H](O)[C@H](O)[C@H]4O[C@@H]4O[C@H](CO)[C@@H](O)[C@H](O)[C@H]4O)C(C)(C)[C@@H]3CC[C@]12C [GRc] | below 0.3 × 10^−6 cm/s | 5.1 ± 2.4 | 18.0 ± 1.2 | 6.2 ± 4.0 | 118.4 ± 58.2 | marked decrease |  | 
CC(C)=CCC[C@](C)(O[C@@H]1O[C@H](CO[C@@H]2O[C@H](CO)[C@@H](O)[C@H](O)[C@H]2O)[C@@H](O)[C@H](O)[C@H]1O)[C@H]1CC[C@]2(C)[C@@H]1[C@H](O)C[C@@H]1[C@@]3(C)CC[C@H](O[C@@H]4O[C@H](CO)[C@@H](O)[C@H](O)[C@H]4O[C@@H]4O[C@H](CO)[C@@H](O)[C@H](O)[C@H]4O)C(C)(C)[C@@H]3CC[C@]12C [GRb1, ginsenoside Rb1] |  |  |  |  |  |  | marked decrease | Papp A→B at 50 µM ([4]; CaCo-2 cell monolayers, 50 µM ginsenoside, read-out: A to B Papp): < 0.3 ×10⁻⁶ cm/s; Oral bioavailability (BA) ([5]; in rats): less than 5%; Change of AUC / pharmacokinetic parameters by RGE and LAB co-administration ([2]; RGE + LAB group versus RGE group, humans, result in words): not different; Cmax ([2]; male, human, plasma, po, 104.1 mg total ginsenosides/day, RGE group, human plasma, RGE oral 14 days, mean ± SD, n = 5, read-out: Cmax): 7.1 ± 3.2 ng/mL; MRT ([2]; male, human, plasma, po, 104.1 mg total ginsenosides/day, RGE group, human plasma, RGE oral 14 days, mean ± SD, n = 5, read-out: MRT): 18.3 ± 1.1 h; Tmax ([2]; male, human, plasma, po, 104.1 mg total ginsenosides/day, RGE group, human plasma, RGE oral 14 days, mean ± SD, n = 5, read-out: Tmax): 5.3 ± 4.6 h; Cmax ([2]; male, human, plasma, po, RGE + LAB group, human plasma, oral 14 days, mean ± SD, n = 5, read-out: Cmax): 6.2 ± 2.9 ng/mL; MRT ([2]; male, human, plasma, po, RGE + LAB group, human plasma, oral 14 days, mean ± SD, n = 5, read-out: MRT): 16.9 ± 0.5 h; Tmax ([2]; male, human, plasma, po, RGE + LAB group, human plasma, oral 14 days, mean ± SD, n = 5, read-out: Tmax): 6.8 ± 1.1 h; AUC ([2]; male, RGE + LAB group, human plasma, RGE plus LAB (1 billion CFU/2 g) once daily oral 14 days, AUC 0 to 24 h, mean ± SD, n = 5, read-out: AUC): 164 ± 77.3 ng·h/mL; AUC ([2]; male, RGE group, human plasma, RGE once daily oral 14 days (104.1 mg total ginsenosides/day), AUC 0 to 24 h, mean ± SD, n = 5, read-out: AUC): 185 ± 80.6 ng·h/mL
CC(C)=CCCC(C)(OC1OC(CO)C(O)C(O)C1O)C1CCC2(C)C1C(O)CC1C3(C)CCC(OC4OC(CO)C(O)C(O)C4O)C(C)(C)C3CCC12C (centres unmarked) [GF2] |  |  |  |  |  |  | remained unchanged | LAB-mediated deglycosylation (formation of deglycosylated ginsenoside from the incubated ginsenoside) [6]: negligible; Papp A→B at 50 µM ([4]; Caco-2): < 0.3 ×10⁻⁶ cm/s

Second part, led by results:

A to B Papp [1] | Cmax ([2]; human, in vivo, po) [ng/mL] | MRT ([2]; human, in vivo, po) [h] | Tmax ([2]; human, in vivo, po) [h] | AUC ([2]; human, in vivo, po, 104.1 mg) [ng·h/mL] | Relative abundance / metabolic activity following fermentation of RGE with LAB [3] | SMILES | Relative abundance / metabolic activity following fermentation of RGE with LAB [3, 8] | also measured
below 0.3 × 10^−6 cm/s | 7.2 ± 4.8 | 7.6 ± 2.8 | 7.2 ± 3.0 | 94.1 ± 50.0 | remained unchanged | CC(C)=CCC[C@](C)(O)[C@H]1CC[C@]2(C)[C@@H]1[C@H](O)C[C@@H]1[C@@]3(C)CC[C@H](O[C@@H]4O[C@H](CO)[C@@H](O)[C@H](O)[C@H]4O[C@@H]4O[C@H](CO)[C@@H](O)[C@H](O)[C@H]4O)C(C)(C)[C@@H]3CC[C@]12C [GRg3] |  | A to B permeability [7]: 0.07±0.01 × 10^−6 cm/s; B to A permeability [7]: 0.07±0.01 × 10^−6 cm/s
below 0.3 × 10^−6 cm/s | 2.1 ± 0.9 | 18.2 ± 1.4 | 7.5 ± 5.8 | 37.9 ± 12.6 | marked decrease | CC(C)=CCC[C@](C)(O[C@@H]1O[C@H](CO)[C@@H](O)[C@H](O)[C@H]1O)[C@H]1CC[C@]2(C)[C@@H]1[C@H](O)C[C@@H]1[C@@]3(C)CC[C@H](O[C@@H]4O[C@H](CO)[C@@H](O)[C@H](O)[C@H]4O[C@@H]4O[C@H](CO)[C@@H](O)[C@H](O)[C@H]4O)C(C)(C)[C@@H]3CC[C@]12C [GRd] |  | Oral bioavailability (BA) ([5]; rat, in vivo, po): less than 5%
below 0.3 × 10^−6 cm/s |  |  |  |  | marked decrease | CC(C)=CCC[C@](C)(O[C@@H]1O[C@H](CO)[C@@H](O)[C@H](O)[C@H]1O)[C@H]1CC[C@]2(C)[C@@H]1[C@H](O)C[C@@H]1[C@@]3(C)CC[C@H](O)C(C)(C)[C@@H]3[C@@H](O[C@@H]3O[C@H](CO)[C@@H](O)[C@H](O)[C@H]3O[C@@H]3O[C@@H](C)[C@H](O)[C@@H](O)[C@H]3O)C[C@]12C [GRe] |  | 
